Laboratory results published in patent US20220033397A1, “PHARMACEUTICAL COMPOUNDS AND THEIR USE AS INHIBITORS OF UBIQUITIN SPECIFIC PROTEASE 19 (USP19)” (ALMAC DISCOVERY LIMITED, priority 2018, published 2022).

Each molecule was assayed against T1, Full-length USP19 (Homo sapiens, UniProt O94966) (assay: USP19 fluorescence polarisation (FP) homogeneous assay with Ubiquitin-Lys-TAMRA substrate). Settings: 2.5 nM USP19, 30 min pre-incubation, average of at least two duplicate experiments.
T1 construct: Full-length USP19 was purchased from Boston Biochem (E-576); purchased Boston Biochem E-576
T1 sequence (O94966 1-1318): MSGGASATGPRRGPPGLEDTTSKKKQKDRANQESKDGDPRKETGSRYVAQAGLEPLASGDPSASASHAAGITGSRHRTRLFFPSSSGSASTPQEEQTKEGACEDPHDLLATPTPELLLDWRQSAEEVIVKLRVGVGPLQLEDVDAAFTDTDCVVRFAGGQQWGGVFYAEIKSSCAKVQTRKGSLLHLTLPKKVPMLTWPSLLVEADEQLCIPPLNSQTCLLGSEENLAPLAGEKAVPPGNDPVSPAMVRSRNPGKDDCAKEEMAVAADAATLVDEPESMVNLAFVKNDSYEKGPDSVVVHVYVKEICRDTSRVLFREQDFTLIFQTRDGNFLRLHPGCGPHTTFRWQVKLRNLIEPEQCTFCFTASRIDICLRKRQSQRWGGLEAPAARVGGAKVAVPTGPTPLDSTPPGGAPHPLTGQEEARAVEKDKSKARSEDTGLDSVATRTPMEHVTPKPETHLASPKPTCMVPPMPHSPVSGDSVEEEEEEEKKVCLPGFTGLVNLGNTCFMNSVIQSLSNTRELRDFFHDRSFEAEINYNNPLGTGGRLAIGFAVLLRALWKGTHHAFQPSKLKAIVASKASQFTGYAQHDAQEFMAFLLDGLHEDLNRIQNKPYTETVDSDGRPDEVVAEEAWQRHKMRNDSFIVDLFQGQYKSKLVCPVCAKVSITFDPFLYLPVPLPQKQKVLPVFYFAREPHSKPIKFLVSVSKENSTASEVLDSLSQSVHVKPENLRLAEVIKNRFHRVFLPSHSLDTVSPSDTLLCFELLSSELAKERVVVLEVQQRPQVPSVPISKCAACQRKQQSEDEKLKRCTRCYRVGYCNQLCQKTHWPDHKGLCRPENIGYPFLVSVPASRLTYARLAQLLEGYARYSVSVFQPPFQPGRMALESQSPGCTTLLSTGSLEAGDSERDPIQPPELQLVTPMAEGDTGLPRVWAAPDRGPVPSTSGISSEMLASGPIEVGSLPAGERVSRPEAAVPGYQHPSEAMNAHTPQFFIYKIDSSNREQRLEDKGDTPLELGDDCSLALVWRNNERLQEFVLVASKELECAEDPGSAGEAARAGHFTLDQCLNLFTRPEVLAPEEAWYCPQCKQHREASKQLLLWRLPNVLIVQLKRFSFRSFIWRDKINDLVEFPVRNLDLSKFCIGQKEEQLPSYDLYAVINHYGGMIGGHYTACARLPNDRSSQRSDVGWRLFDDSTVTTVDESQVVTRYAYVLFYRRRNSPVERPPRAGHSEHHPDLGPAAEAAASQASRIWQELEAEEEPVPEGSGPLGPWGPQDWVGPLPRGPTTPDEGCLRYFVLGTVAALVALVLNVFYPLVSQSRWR
Format: biochemical
Outline: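 Full-length USP19 preincubated 30 min at RT with inhibitor (200 μM to 2 μM series, 8–18 points) before adding 500 nM Ubiquitin-Lys-TAMRA substrate.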

| Compound | IC50 |
| --- | --- |
| O=C(NCC1(F)CCC1)N1CC[C@@](O)(Cn2cnc(-c3ccccc3)cc2=O)C2(CCCC2)C1 [Example 312, (S)—N-((1-Fluorocyclobutyl)methyl)-10-hydroxy-10-((6-oxo-4-phenylpyrimidin-1(6H)-yl)methyl)-7-azaspiro[4.5]decane-7-carboxamide] | 5000 to 50000 nM |
| CN(CC1CC1)C(=O)N1CC[C@@](O)(Cn2cnc(-c3ccccc3)cc2=O)C2(CCCC2)C1 [Example 313, (S)—N-(Cyclopropylmethyl)-10-hydroxy-N-methyl-10-((6-oxo-4-phenylpyrimidin-1(6H)-yl)methyl)-7-azaspiro[4.5]decane-7-carboxamide] | 500 to 5000 nM |
| O=C(N1CC[C@@](O)(Cn2cnc(-c3ccccc3F)cc2=O)C2(CCCC2)C1)N1CCNC[C@H]1c1ccccc1 [Example 314, 6-(2-Fluorophenyl)-3-(((S)-10-hydroxy-7-((R)-2-phenylpiperazine-1-carbonyl)-7-azaspiro[4.5]decan-10-yl)methyl)pyrimidin-4(3H)-one] | < 500 nM |
| CN(C)c1cc(=O)n(C[C@]2(O)CCN(C(=O)N3CCNC[C@H]3c3ccccc3)CC23CCCC3)cn1 [Example 318, 6-(Dimethylamino)-3-(((S)-10-hydroxy-7-((R)-2-phenylpiperazine-1-carbonyl)-7-azaspiro[4.5]decan-10-yl)methyl)pyrimidin-4(3H)-one] | < 500 nM |
| O=C(N1CCC(O)(Cn2cnc(-c3ccccc3)cc2=O)C2(CCOCC2)C1)N1CCNC[C@H]1c1ccccc1 (stereo partly drawn) [Example 321, 3-((5-Hydroxy-2-((R)-2-phenylpiperazine-1-carbonyl)-9-oxa-2-azaspiro[5.5]undecan-5-yl)methyl)-6-phenylpyrimidin-4(3H)-one] | < 500 nM |
| O=C(N1CC[C@@](O)(Cn2cnc(-c3ccccc3)cc2=O)C2(CCCC2)C1)N1CCN(CC(F)(F)F)C[C@H]1c1ccccc1 [Example 323, 3-(((S)-10-Hydroxy-7-((R)-2-phenyl-4-(2,2,2-trifluoroethyl)piperazine-1-carbonyl)-7-azaspiro[4.5]decan-10-yl)methyl)-6-phenylpyrimidin-4(3H)-one] | < 500 nM |
| O=C(N1CCC(O)(Cn2cnc(-c3ccccc3)cc2=O)C2(CCOCC2)C1)N1CCOC[C@H]1c1ccccc1 (stereo partly drawn) [Example 325, 3-((5-Hydroxy-2-((R)-3-phenylmorpholine-4-carbonyl)-9-oxa-2-azaspiro[5.5]undecan-5-yl)methyl)-6-phenylpyrimidin-4(3H)-one] | < 500 nM |
| Cn1cc(-c2ccn(C[C@]3(O)CCN(C(=O)N4CCNC[C@H]4c4ccccc4)CC34CCCC4)c(=O)c2)cn1 [Example 329, 1-(((S)-10-Hydroxy-7-((R)-2-phenylpiperazine-1-carbonyl)-7-azaspiro[4.5]decan-10-yl)methyl)-4-(1-methyl-1H-pyrazol-4-yl)pyridin-2(1H)-one] | < 500 nM |
| O=C(N1CC[C@@](O)(Cn2ccc(N3CCCC3)cc2=O)C2(CCCC2)C1)N1CCNC[C@H]1c1ccccc1 [Example 330, 1-(((S)-10-Hydroxy-7-((R)-2-phenylpiperazine-1-carbonyl)-7-azaspiro[4.5]decan-10-yl)methyl)-4-(pyrrolidin-1-yl)pyridin-2(1H)-one] | < 500 nM |
| O=C(N1CCC(O)(Cn2cnc(-c3ccccc3)cc2=O)C2(CCCC2)C1)N1CCSCC1c1ccccc1 [Example 333, (S)-3-((10-Hydroxy-7-(3-phenylthiomorpholine-4-carbonyl)-7-azaspiro[4.5]decan-10-yl)methyl)-6-phenylpyrimidin-4(3H)-one] | < 500 nM |
| N=S1(=O)CCN(C(=O)N2CC[C@@](O)(Cn3cnc(-c4ccccc4)cc3=O)C3(CCCC3)C2)C(c2ccccc2)C1 (stereo partly drawn) [Example 334, 3-(((10S)-10-Hydroxy-7-(1-imino-1-oxido-3-phenyl-1λ^6-thiomorpholine-4-carbonyl)-7-azaspiro[4.5]decan-10-yl)methyl)-6-phenylpyrimidin-4(3H)-one] | < 500 nM |

Now from value to molecule:

| IC50 | Compound |
| --- | --- |
| < 500 nM | O=C(N1CC[C@@](O)(Cn2cnc(-c3cccc(F)c3)cc2=O)C2(CCCC2)C1)N1CCNC[C@H]1c1ccccc1 [Example 315, 6-(3-Fluorophenyl)-3-(((S)-10-hydroxy-7-((R)-2-phenylpiperazine-1-carbonyl)-7-azaspiro[4.5]decan-10-yl)methyl)pyrimidin-4(3H)-one] |
| < 500 nM | O=C(N1CC[C@@](O)(Cn2cnc(-c3ccc(F)cc3)cc2=O)C2(CCCC2)C1)N1CCNC[C@H]1c1ccccc1 [Example 316, 6-(4-Fluorophenyl)-3-(((S)-10-hydroxy-7-((R)-2-phenylpiperazine-1-carbonyl)-7-azaspiro[4.5]decan-10-yl)methyl)pyrimidin-4(3H)-one] |
| < 500 nM | COc1ccccc1-c1cc(=O)n(C[C@]2(O)CCN(C(=O)N3CCNC[C@H]3c3ccccc3)CC23CCCC3)cn1 [Example 317, 3-(((S)-10-Hydroxy-7-((R)-2-phenylpiperazine-1-carbonyl)-7-azaspiro[4.5]decan-10-yl)methyl)-6-(2-methoxyphenyl)pyrimidin-4(3H)-one] |
| < 500 nM | CNc1cc(=O)n(C[C@]2(O)CCN(C(=O)N3CCNC[C@H]3c3ccccc3)CC23CCCC3)cn1 [Example 319, 3-(((S)-10-Hydroxy-7-((R)-2-phenylpiperazine-1-carbonyl)-7-azaspiro[4.5]decan-10-yl)methyl)-6-(methylamino)pyrimidin-4(3H)-one] |
| < 500 nM | O=C(N1CC[C@@](O)(Cn2cnc(-c3ccccc3)cc2=O)C2(CCCC2)C1)N1CCNC[C@H]1c1cccc(F)c1 [Example 320, 3-(((S)-7-((R)-2-(3-Fluorophenyl)piperazine-1-carbonyl)-10-hydroxy-7-azaspiro[4.5]decan-10-yl)methyl)-6-phenylpyrimidin-4(3H)-one] |
| < 500 nM | CC1(C)CN(C(=O)N2CCNC[C@H]2c2ccccc2)CC[C@@]1(O)Cn1cnc(-c2ccccc2)cc1=O [Example 322, 3-(((S)-4-Hydroxy-3,3-dimethyl-1-((R)-2-phenylpiperazine-1-carbonyl)piperidin-4-yl)methyl)-6-phenylpyrimidin-4(3H)-one] |
| < 500 nM | COc1cc(=O)n(C[C@]2(O)CCN(C(=O)N3CCNC[C@H]3c3ccccc3)CC23CCCC3)cn1 [Example 324, 3-(((S)-10-Hydroxy-7-((R)-2-phenylpiperazine-1-carbonyl)-7-azaspiro[4.5]decan-10-yl)methyl)-6-methoxypyrimidin-4(3H)-one] |
| < 500 nM | O=C(N1CC[C@@](O)(Cn2ccc(Cl)cc2=O)C2(CCCC2)C1)N1CCNC[C@H]1c1ccccc1 [Example 326, 4-Chloro-1-(((S)-10-hydroxy-7-((R)-2-phenylpiperazine-1-carbonyl)-7-azaspiro[4.5]decan-10-yl)methyl)pyridin-2(1H)-one] |
| < 500 nM | O=C(N1CC[C@@](O)(Cn2ccc(C3CC3)cc2=O)C2(CCCC2)C1)N1CCNC[C@H]1c1ccccc1 [Example 327, 4-Cyclopropyl-1-(((S)-10-hydroxy-7-((R)-2-phenylpiperazine-1-carbonyl)-7-azaspiro[4.5]decan-10-yl)methyl)pyridin-2(1H)-one] |
| < 500 nM | Cn1nccc1-c1ccn(C[C@]2(O)CCN(C(=O)N3CCNC[C@H]3c3ccccc3)CC23CCCC3)c(=O)c1 [Example 328, 1-(((S)-10-Hydroxy-7-((R)-2-phenylpiperazine-1-carbonyl)-7-azaspiro[4.5]decan-10-yl)methyl)-4-(1-methyl-1H-pyrazol-5-yl)pyridin-2(1H)-one] |
| < 500 nM | O=C(N1CCC(O)(Cn2cc(F)c(-c3ccccc3)cc2=O)C2(CCCC2)C1)N1CCNC[C@H]1c1ccccc1 (stereo partly drawn) [Example 331, 5-Fluoro-1-((10-hydroxy-7-((R)-2-phenylpiperazine-1-carbonyl)-7-azaspiro[4.5]decan-10-yl)methyl)-4-phenylpyridin-2(1H)-one] |
| 500 to 5000 nM | O=C(N1CCC(O)(Cn2ccc(-c3ccccc3)c(F)c2=O)C2(CCCC2)C1)N1CCNC[C@H]1c1ccccc1 (stereo partly drawn) [Example 332, 3-Fluoro-1-((10-hydroxy-7-((R)-2-phenylpiperazine-1-carbonyl)-7-azaspiro[4.5]decan-10-yl)methyl)-4-phenylpyridin-2(1H)-one] |
